The subject of one series is M. furfur. The series is described as follows: Anti-fungal effect against M. furfur in a shampoo type formulation. It is filed as cell-based, Malassezia furfur. As for the experimental part: Experimentation was carried out to assess the anti-fungal effect of the fumagillin derivative alone and in combination with pseurotin A against M. furfur in a shampoo type formulation.
Compositions of the fumagillin derivative with and without pseurotin A were created and suspended into the baby shampoo. The shampoo mixture was then diluted out into the assay in a similar manner to Head & Shoulders, so that various dilution points in the assay represented multiple sub-inhibitory concentrations of the fumagillin derivative and pseurotin A.

For series [1], the system named is Malassezia furfur (ATCC #38593). The series is described as follows: Malassezia furfur growth inhibition assay (96-well, Alamar blue). The format is cell-based. As for the experimental part:
Malassezia furfur (ATCC #38593) was cultured on Media C agar for 7 days at 37° C. Yeast colonies were then harvested into 0.9% saline sterile diH2O and diluted to approximately 1.5×10^6 CFU/mL using a 0.5 MacFarland standard (Fisher # R20410) to create an assay inoculum. Assay inoculum was added to sterile Media C broth to a final concentration of 4.5×10^4 CFU/mL. Assays were carried out in 96 well plates with a final well volume of 100 μL. Extract fractions and pure compounds were tested in triplicate against each organism. Extract fractions and pure compounds were re-suspended in sterile 20% DMSO. Extract fractions were assayed at two concentrations (50 and 250 μg/mL) with a final well volume concentration of 2% DMSO while pure compounds were serially diluted to generate a range of eight concentrations (128 μg/mL to 1 μg/mL) in a final well volume concentration of 2% DMSO. Each plate contained eight un-inoculated positive controls (media+20% DMSO), eight untreated negative controls (Media+20% DMSO+organism), and one column containing a concentration range of a ketoconazole as a control antibiotic. The assay plate was incubated at 37° C. for 5 days after which growth within the wells were visualised and photographed with a UVP Biospectrum 500 imaging system. Alamar blue was then added to each well at 10% of the culture volume (11 μL in 100 μL). Fluorescence was monitored using a BioTek Synergy HT plate reader at 530/25 excitation, 590/35 emission and 35 sensitivity at both time zero and 4 hrs after Alamar blue was added. After subtracting the time zero emission 590 nm measurement from the final reading the inferred percentage of microorganism survival relative to vehicle control wells were calculated and the IC50 was determined.

For series [2], the system named is Adult human epidermal keratinocytes (Heka). The series is described as follows: Keratinocyte cytotoxicity assay (Alamar blue). It is filed as cell-based. As for the experimental part:
Adult human epidermal keratinocytes (Heka) isolated from skin (Invitrogen # C-005-5C) were grown and maintained in 15 mL of EPilife medium (Invitrogen # M-EPI-500) supplemented with HKGS growth supplements (Invitrogen # S-001-5) (0.2% v/v bovine pituitary extract (BPE), 5 μg/mL bovine insulin, 0.18 μg/mL hydrocortisone, 5 μg/mL bovine transferrin, 0.2 ng/mL human epidermal growth factor) and 50 μg/mL gentamicin (Sigma # G1397-10ML) in T75 cm^2 cell culture flasks (VWR # CABD353136) and incubated at 37° C. in a humidified atmosphere of 5% CO2. Growth medium was refreshed every 2 days until the cells reached 50% confluency and then the medium was refreshed every 24 hrs until 80% confluency was obtained.
At 80% confluency, the cells were counted, diluted and plated into 96 well treated cell culture plates (VWR #29442-054) at a cell density of 10000 cells per well in 90 μL of respective growth medium. […]
(§1) All samples were tested in triplicate. […] Fluorescence was monitored using a BioTek Synergy HT plate reader at 530/25 excitation, 590/35 emission and 35 sensitivity at both time zero and 4 hrs after Alamar blue was added. After subtracting the time zero emission 590 nm measurement from the final reading the inferred percentage of microorganism survival relative to vehicle control wells were calculated and the IC50 was determined.

Series [3] deals with Human foreskin BJ fibroblast cells (ATCC CRL-2522). The series is described as follows: Fibroblast cytotoxicity assay (Alamar blue). The format is cell-based. As for the experimental part:
Human foreskin BJ fibroblast cells (ATCC CRL-2522) were grown and maintained in 15 mL of Eagle's minimal essential medium (Sigma M5650) supplemented with 10% fetal bovine serum (VWR # CA95043-976) and […] penicillin and 0.1 mg/mL streptomycin (VWR # CA12001-692) in T75 cm^2 cell culture flasks (VWR # CABD353136) at 37° C. in a humidified atmosphere of 5% CO2. Culture medium was refreshed every two to three days and cells were not allowed to exceed 80% confluency.
At 80% confluency, the cells were counted, diluted and plated into 96 well treated cell culture plates (VWR #29442-054) at a cell density of 10000 cells per well in 90 μL of respective growth medium. All media used for the assay were the same without the addition of antibiotics. The plates were incubated at 37° C. in a humidified atmosphere of 5% CO2 to allow cells to adhere to the plates for 24 hrs before treatment. DMSO was used as the vehicle at a final concentration of 1% in the wells. […]
as §1

Turning to `CC/C=C\[C@H](O)[C@H](O)C1=C(C)C(=O)[C@]2(O1)C(=O)N[C@@](OC)(C(=O)c1ccccc1)[C@@H]2O` [Pseurotin A, pseurotin A, reference compound], the “antifungal effect against M. furfur” value in the series with M. furfur (shampoo type formulation, alone or as mixture at sub-MIC concentrations) is “antifunimgal effect against M. furfur was observed”. Besides, the “antifungal effect against Malassezia yeasts” value in series [1] (screening of extracts) was “some activity against M. furfur”.
As for `CO[C@@H]1[C@H](OC(=O)/C=C/[C@H]2O[C@@H]2C)CC[C@]2(CO2)[C@H]1[C@@]1(C)O[C@@H]1CC=C(C)C` [Fumagillin derivative], the MIC with M. furfur (Malassezia furfur, fumagillin derivative alone, suspended in baby shampoo) is 1.25 µg/mL; in series [1] (Malassezia furfur, ATCC38593, 120 h, 37° C., 5 days, pure compound 128 to 1 μg/mL) it was roughly 2 µg/mL. Moreover, the IC50 is greater than 64 µg/mL in series [2] (Homo sapiens, HEKa, 24 hrs treatment, cytotoxicity); roughly 0.7 µg/mL in series [1] (Malassezia furfur, ATCC38593, 120 h, 37° C., 5 days, Alamar blue); greater than 64 µg/mL in series [3] (Homo sapiens, Fibroblast, 24 hrs treatment, cytotoxicity). Besides, in series [2] (human, 24 h), the “Keratinocyte MIC” value was greater than 64 µg/mL. In addition, in series [3] (human, 24 h), the “Fibroblast MIC” value was greater than 64 µg/mL.

The values above are taken from patent US10821064B2, “Anti-dandruff agents” (Croda International PLC, priority 2015, dated 2020).
